Blank lines part the entries; values can stand above or below the molecule they belong to.
Tests used:
DOHH-2 [1] = assay: Cytotoxicity against human DOHH-2 cells expressing BTK and PI3kdelta assessed as inhibition of cell growth incubated for 72 hrs by celltiter-glo assay; format: functional, cell-based; details: DOHH-2, 72 h
DOHH-2 [2] = assay: Antitumor activity against human DOHH-2 cells xenografted in CB17/SCID mouse assessed as reduction in tumor growth at 25 mg/kg, po administered twice daily in combination with ibrutinib at 15 mg/kg for 30 days and measured twice a week relative to control; format: functional; parameters: scale not given: the % may be the effect or the level left; details: time 30 day
DOHH-2 [3] = assay: Antitumor activity against human DOHH-2 cells xenografted in CB17/SCID mouse assessed as reduction in tumor growth at 50 mg/kg, po administered twice daily in combination with ibrutinib at 30 mg/kg for 30 days and measured twice a week relative to control; format: functional; parameters: scale not given: the % may be the effect or the level left; details: time 30 day
[4] = target: T1, Cytoplasmic tyrosine-protein kinase BMX (Homo sapiens) (UniProt P51813); assay: Inhibition of BMX (unknown origin) assessed as residual activity at 200 nM relative to control
T1 sequence (whole entry): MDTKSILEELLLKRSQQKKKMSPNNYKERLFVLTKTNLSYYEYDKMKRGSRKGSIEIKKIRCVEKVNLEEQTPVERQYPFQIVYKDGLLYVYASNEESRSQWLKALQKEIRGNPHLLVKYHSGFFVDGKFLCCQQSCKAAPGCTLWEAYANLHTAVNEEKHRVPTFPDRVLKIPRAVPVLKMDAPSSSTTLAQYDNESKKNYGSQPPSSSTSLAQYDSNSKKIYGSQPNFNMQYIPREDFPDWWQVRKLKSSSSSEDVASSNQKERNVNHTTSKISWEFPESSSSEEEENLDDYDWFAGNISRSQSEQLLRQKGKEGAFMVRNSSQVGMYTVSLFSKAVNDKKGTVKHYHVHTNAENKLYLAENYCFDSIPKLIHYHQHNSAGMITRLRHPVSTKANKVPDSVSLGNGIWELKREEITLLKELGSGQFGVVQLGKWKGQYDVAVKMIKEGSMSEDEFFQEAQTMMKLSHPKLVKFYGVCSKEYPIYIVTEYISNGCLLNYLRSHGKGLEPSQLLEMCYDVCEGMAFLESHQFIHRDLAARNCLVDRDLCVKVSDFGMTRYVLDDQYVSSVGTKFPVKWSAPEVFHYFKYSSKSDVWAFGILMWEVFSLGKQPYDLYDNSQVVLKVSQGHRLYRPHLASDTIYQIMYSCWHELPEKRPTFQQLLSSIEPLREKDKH

[5] = target: T2, Tyrosine-protein kinase BTK (Homo sapiens, UniProt Q06187); assay: Inhibition of BTK (unknown origin) assessed as residual activity at 200 nM relative to control
T2 sequence (Q06187 whole entry): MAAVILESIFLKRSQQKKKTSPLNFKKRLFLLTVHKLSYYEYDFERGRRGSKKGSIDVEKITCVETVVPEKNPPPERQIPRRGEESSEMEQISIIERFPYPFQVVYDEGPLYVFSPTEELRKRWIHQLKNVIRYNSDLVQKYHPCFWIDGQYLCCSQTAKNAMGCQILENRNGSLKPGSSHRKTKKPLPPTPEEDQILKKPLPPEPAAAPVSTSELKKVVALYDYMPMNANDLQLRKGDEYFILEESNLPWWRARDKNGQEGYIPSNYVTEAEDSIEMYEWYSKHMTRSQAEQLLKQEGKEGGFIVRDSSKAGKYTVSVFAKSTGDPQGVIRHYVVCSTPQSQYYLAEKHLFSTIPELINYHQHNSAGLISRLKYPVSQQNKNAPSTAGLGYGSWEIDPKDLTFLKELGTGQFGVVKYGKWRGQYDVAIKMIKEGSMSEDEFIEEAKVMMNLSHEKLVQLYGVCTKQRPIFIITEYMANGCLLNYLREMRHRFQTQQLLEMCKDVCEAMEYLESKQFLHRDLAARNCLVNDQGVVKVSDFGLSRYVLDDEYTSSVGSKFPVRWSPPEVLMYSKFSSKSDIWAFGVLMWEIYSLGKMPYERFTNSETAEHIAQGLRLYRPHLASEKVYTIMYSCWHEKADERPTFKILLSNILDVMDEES

Tubulin (Homo sapiens) = Tubulin (Homo sapiens) (UniProt P68371+Q9H4B7+P0DPH7+P68366+Q13509+Q71U36+P04350+Q3ZCM7+P07437+P68363+Q9BQE3+Q6PEY2+Q13885+Q9BVA1+Q9BUF5); assay: Inhibition of microtubule polymerization in human U-266 cells assessed as increase in phospho-Bcl2 expression at 10 uM measured upto 24 hrs by Western blot analysis relative to control; format: cell-based
DOHH-2 [6] = assay: Antitumor activity against human DOHH-2 cells xenografted in CB17/SCID mouse assessed as reduction in tumor growth at 15 mg/kg, po administered once daily in combination with idelalisib at 25 mg/kg for 30 days and measured twice a week relative to control; format: functional; parameters: scale not given: the % may be the effect or the level left; details: time 30 day
DOHH-2 [7] = assay: Antitumor activity against human DOHH-2 cells xenografted in CB17/SCID mouse assessed as reduction in tumor growth at 30 mg/kg, po administered once daily in combination with idelalisib at 50 mg/kg for 30 days and measured twice a week relative to control; format: functional; parameters: scale not given: the % may be the effect or the level left; details: time 30 day
[8] = Inhibition of mTORC1 (unknown origin) expressed in HEK293T cells using 4EBP1 as substrate assessed as reduction in substrate phosphorylation preincubated for 30 mins followed by ATP addition and measured after 30 mins by Western blot analysis; parameters: species or system Homo sapiens
[9] = target: T2, Tyrosine-protein kinase BTK; assay: Inhibition of BTK (unknown origin)
[10] = target: T3, Tyrosine-protein kinase JAK3 (Homo sapiens, UniProt P52333); assay: Inhibition of recombinant JAK3 (unknown origin)
T3 sequence (P52333 whole entry): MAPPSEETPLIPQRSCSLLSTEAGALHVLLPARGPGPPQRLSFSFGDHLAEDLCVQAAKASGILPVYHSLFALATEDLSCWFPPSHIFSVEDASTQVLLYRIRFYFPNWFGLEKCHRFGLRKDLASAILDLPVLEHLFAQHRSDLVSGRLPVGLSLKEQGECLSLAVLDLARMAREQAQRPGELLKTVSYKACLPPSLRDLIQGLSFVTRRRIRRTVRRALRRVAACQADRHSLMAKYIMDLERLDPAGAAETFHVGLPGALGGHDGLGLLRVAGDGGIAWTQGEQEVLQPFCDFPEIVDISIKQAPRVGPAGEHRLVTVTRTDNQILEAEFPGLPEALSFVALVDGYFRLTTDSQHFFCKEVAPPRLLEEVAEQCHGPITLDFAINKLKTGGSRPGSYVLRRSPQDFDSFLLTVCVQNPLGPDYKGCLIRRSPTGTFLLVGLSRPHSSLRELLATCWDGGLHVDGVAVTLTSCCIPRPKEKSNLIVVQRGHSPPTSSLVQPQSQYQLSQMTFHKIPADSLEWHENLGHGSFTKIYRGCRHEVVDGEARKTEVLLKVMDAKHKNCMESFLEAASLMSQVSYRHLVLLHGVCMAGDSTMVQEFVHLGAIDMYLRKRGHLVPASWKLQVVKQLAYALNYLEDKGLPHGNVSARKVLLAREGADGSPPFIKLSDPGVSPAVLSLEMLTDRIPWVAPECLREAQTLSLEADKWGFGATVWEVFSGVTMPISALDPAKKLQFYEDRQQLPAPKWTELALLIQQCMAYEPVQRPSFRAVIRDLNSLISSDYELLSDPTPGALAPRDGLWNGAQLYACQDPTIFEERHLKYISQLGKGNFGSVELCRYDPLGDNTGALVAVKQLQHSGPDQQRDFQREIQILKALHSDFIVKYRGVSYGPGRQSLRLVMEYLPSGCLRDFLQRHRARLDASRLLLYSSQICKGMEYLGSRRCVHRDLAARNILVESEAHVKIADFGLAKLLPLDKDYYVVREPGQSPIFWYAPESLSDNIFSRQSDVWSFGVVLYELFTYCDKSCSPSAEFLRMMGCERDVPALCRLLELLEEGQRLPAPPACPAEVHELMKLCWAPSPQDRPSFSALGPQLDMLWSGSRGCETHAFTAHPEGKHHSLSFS

DOHH-2 [11] = assay: Antitumor activity against human DOHH-2 cells xenografted in CB17/SCID mouse assessed as reduction in tumor growth at 100 mg/kg, po administered twice daily for 30 days and measured twice a week relative to control; format: functional; parameters: scale not given: the % may be the effect or the level left; details: time 30 day
U-266 [12] = assay: Antitumor activity against human U-266 cells xenografted in BALB/c nude mouse assessed as tumor growth inhibition at 1 mg/kg, ip administered twice weekly and measured for 4 weeks by digital caliper analysis relative to control; format: functional; details: U-266, 672 h, read-out: TGI
U-266 [13] = assay: Cytotoxicity against human U-266 cells assessed as inhibition of cell growth incubated for 48 hrs by MTT assay; format: functional, cell-based; details: U-266, 48 h
[14] = Cytotoxicity against human MM.1 cells assessed as inhibition of cell growth incubated for 48 hrs by MTT assay; format: functional, cell-based; details: Mm1, 48 h
[15] = target: T2, Tyrosine-protein kinase BTK; assay: Inhibition of N-terminal His tagged human recombinant full length BTK expressed in baculovirus infected Sf9 insect cells using Poly (4:1 Glu, Tyr) Peptide as substrate at 0.5 uM incubated for 60 mins by ADP-glo reagent based luminescence assay relative to control
RPMI-8226 = assay: Cytotoxicity against human RPMI-8226 cells assessed as inhibition of cell growth incubated for 48 hrs by MTT assay; format: functional, cell-based; details: RPMI-8226, 48 h
MV4-11 = assay: Antiproliferative activity against human MV4-11 cells assessed as inhibition of cell growth; format: functional, cell-based
BaF3 [16] = assay: Antiproliferative activity against mouse BaF3 cells expressing […] FLT3 ITD/[…] double mutant assessed as inhibition of cell growth; format: functional, cell-based
BaF3 [17] = assay: Antiproliferative activity against mouse BaF3 cells expressing […] FLT3 […] mutant assessed as inhibition of cell growth; format: functional, cell-based
BaF3 [18] = assay: Antiproliferative activity against mouse BaF3 cells expressing […] FLT3 ITD F691L mutant assessed as inhibition of cell growth; format: functional, cell-based
BaF3 [19] = assay: Antiproliferative activity against mouse BaF3 cells expressing […] FLT3 ITD mutant assessed as inhibition of cell growth; format: functional, cell-based
MOLM-13 = assay: Antiproliferative activity against human MOLM-13 cells assessed as inhibition of cell growth; format: functional, cell-based
BaF3 [20] = assay: Antiproliferative activity against mouse BaF3 cells expressing wild type FLT3 assessed as inhibition of cell growth; format: functional, cell-based
[21] = target: Tyrosine-protein kinase HCK (Homo sapiens, UniProt P08631); assay: Inhibition of HCK (unknown origin)
Sequence of Tyrosine-protein kinase HCK (P08631 whole entry): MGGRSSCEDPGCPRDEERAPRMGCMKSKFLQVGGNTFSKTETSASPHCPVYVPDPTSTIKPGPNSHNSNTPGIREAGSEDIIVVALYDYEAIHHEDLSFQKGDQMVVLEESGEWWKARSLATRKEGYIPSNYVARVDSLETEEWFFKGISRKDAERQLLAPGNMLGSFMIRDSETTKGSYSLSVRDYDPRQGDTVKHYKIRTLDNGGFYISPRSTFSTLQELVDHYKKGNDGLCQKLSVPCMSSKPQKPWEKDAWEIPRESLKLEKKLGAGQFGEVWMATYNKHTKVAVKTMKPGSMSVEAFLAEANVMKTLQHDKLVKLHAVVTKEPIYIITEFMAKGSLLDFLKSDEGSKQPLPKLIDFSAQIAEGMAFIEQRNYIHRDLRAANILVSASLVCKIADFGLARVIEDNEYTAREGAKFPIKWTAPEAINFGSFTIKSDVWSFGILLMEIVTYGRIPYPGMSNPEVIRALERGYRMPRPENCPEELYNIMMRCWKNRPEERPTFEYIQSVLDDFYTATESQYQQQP

[22] = target: T2, Tyrosine-protein kinase BTK; assay: Inhibition of N-terminal His6-tagged human full length recombinant BTK expressed in baculovirus infected Sf21 insect cells using YIYGSFK as substrate preincubated for 5 mins followed by 33p-labeled ATP addition and measured after 1 hr by thin layer chromatography
PC-3 = assay: Antitumor activity against human PC-3 cells xenografted in nude mouse assessed as inhibition of tumor growth at 10 mg/kg/day, ip administered for 42 days starting from 14 days post inoculation relative to control; format: functional; details: PC-3, 1008 h, time 42 day, read-out: TGI

Structure (SMILES): CC[C@H](Nc1ncnc2[nH]cnc12)c1nc2cccc(F)c2c(=O)n1-c1ccccc1 [IDELALISIB]
IC50 (DOHH-2 [1]): 860 nM
Activity (DOHH-2 [2]): 38.1%
Activity (DOHH-2 [3]): 57.9%

Structure (SMILES): C=CC(=O)Nc1cccc(-c2c[nH]c3ncccc23)c1
Activity [4]: 2.7%
Activity [5]: 18.2%

Structure (SMILES): CC[C@]1(O)C[C@@H]2CN(CCc3c([nH]c4ccccc34)[C@@](C(=O)OC)(c3cc4c(cc3OC)N(C)[C@H]3[C@@](O)(C(=O)OC)[C@H](OC(C)=O)[C@]5(CC)C=CCN6CC[C@]43[C@@H]65)C2)C1
inhibition (Tubulin (Homo sapiens)): 66%

Structure (SMILES): C=CC(=O)N1CCC[C@@H](n2nc(-c3ccc(Oc4ccccc4)cc3)c3c(N)ncnc32)C1 [IBRUTINIB]
IC50 (DOHH-2 [1]): 23 nM
Activity (DOHH-2 [6]): 38.1%
Activity (DOHH-2 [7]): 57.9%

Structure (SMILES): Nc1ccc2c(c1)CC(n1nc(-c3cc(F)c4c(c3)NCCO4)c3c(N)ncnc31)C2 (stereo unspecified)
IC50 (DOHH-2 [1]): 1340 nM
Activity (DOHH-2 [11]): 45.2%

Structure (SMILES): N#CSCc1ccc(CN2C(=O)C(=O)c3cc(Br)cc(Br)c32)cc1
inhibition in vivo at 1 mg/kg (U-266 [12]): 50%
IC50 (U-266 [13]): 500 nM
IC50 [14]: 500 nM
inhibition (Tubulin (Homo sapiens)): 77%
inhibition [15]: 50%
IC50 (RPMI-8226): 500 nM

Continued, in another order:

IC50 [8]: 0.25 nM
Structure (SMILES): Nc1ccc(-c2ccc3ncc4ccc(=O)n(-c5cccc(C(F)(F)F)c5)c4c3c2)cn1

IC50 [9]: < 1 nM
IC50 [10]: > 10000 nM
Structure (SMILES): C=CC(=O)Nc1cccc(-c2c[nH]c3ncc(NC(=O)c4cccs4)cc23)c1

IC50 (MV4-11): 0.17 nM
IC50 (BaF3 [16]): 9.72 nM
IC50 (BaF3 [17]): 8.26 nM
IC50 (BaF3 [18]): 0.43 nM
IC50 (BaF3 [19]): 0.3 nM
IC50 (MOLM-13): 0.82 nM
IC50 (BaF3 [20]): 9.49 nM
Structure (SMILES): Cc1cnc(-c2ccc(-c3ccc(NC(=O)Nc4cccc(C(F)(F)F)c4)cc3F)c3c2C(=O)NC3)[nH]1

IC50 [9]: 0.92 nM
IC50 [21]: < 0.5 nM
Structure (SMILES): CN1CCN([C@H]2CC[C@H](n3nc(-c4ccc(Oc5ccccc5)cc4)c4c(N)ncnc43)CC2)CC1

IC50 [22]: 50 nM
Structure (SMILES): CC(C)Cc1nc2cc3c(cc2[nH]c1=O)nc(NC(=O)c1ccc(-c2ccncc2)cc1)n3CCCN1CCCCC1
inhibition in vivo at 10 mg/kg/day (PC-3): 70%

Source: ChEMBL document CHEMBL5126539, “Recent development of BTK-based dual inhibitors in the treatment of cancers” (Eur J Med Chem, 2022)
